Test systems include UO-31 renal; SN12C renal; SK-MEL-2 melanoma; RXF 393 renal; HCT-15 colon; SF-268 CNS; SK-MEL-5 melanoma; SK-OV-3 ovarian; A498 renal; UACC-257 melanoma; HT29 colon; RPMI-8226 leukemia; OVCAR-3 ovarian; NCI/ADR-RES ovarian; HL-60(TB) leukemia; MDA-N.
Common to all, as to assay: inhibition of tumour cell growth, NCI panel, 48 h

Experimental findings from PubChem BioAssay (NCI) are described below.

Structures are written as SMILES.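 Values below derive from 48-hour exposures of cells grown in 96-well plates, with endpoints linearly interpolated between the two concentrations bracketing the appropriate inhibition level. The concentration for full growth arrest is given as TGI.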 A value given as a limit tells only on which side of the number the result lay.

On to `CN1CCCC(C(=O)OCC(=O)C2(O)CCC3C4CCC5=CC(=O)CCC5(C)C4C(O)CC32C)C1` (stereo not drawn), for which the TGI came out at 25.4 µM in the test on UO-31 renal; 24 µM in the test with SN12C renal; 39.3 µM with SK-MEL-2 melanoma; 23.1 µM with RXF 393 renal; 44.1 µM with HCT-15 colon; 46.4 µM in the test on SF-268 CNS. Moreover, the TGI in the test with SK-MEL-5 melanoma worked out at 41.3 µM; in the test on SK-OV-3 ovarian it was 45.6 µM; with A498 renal, 31.6 µM; with UACC-257 melanoma it was 38.2 µM; in the test with HT29 colon, 27 µM; with RPMI-8226 leukemia, 27.8 µM. Also, the TGI in the test on OVCAR-3 ovarian was determined as 32.8 µM; in the test on NCI/ADR-RES ovarian, 55.3 µM; with HL-60(TB) leukemia it was 11 µM; in the test on MDA-N it was 26.8 µM.
With `OC1(c2ccc3ccccc3c2)c2c(c3ccccc3c3ccccc23)C2=NCCN21` (stereo not drawn), the TGI with UO-31 renal is above 48.8 µM; with SN12C renal, above 63.6 µM; in the test on SK-MEL-2 melanoma, above 46.3 µM; with RXF 393 renal it was 7.68 µM; in the test with HCT-15 colon it was above 39.4 µM; with SF-268 CNS it was 29.2 µM. Moreover, the TGI in the test on SK-MEL-5 melanoma was above 100 µM; in the test with SK-OV-3 ovarian it was 42.8 µM; with A498 renal it was 44 µM; in the test with UACC-257 melanoma it was above 63.5 µM; in the test with HT29 colon, 8.63 µM; with RPMI-8226 leukemia it was 6.87 µM. The TGI in the test with OVCAR-3 ovarian is 36.9 µM; in the test on NCI/ADR-RES ovarian it was 5.22 µM; in the test on HL-60(TB) leukemia it was above 100 µM; with MDA-N, 4.28 µM.
Turning to `O=C(O)CO/N=C1/C(c2c(O)[nH]c3ccccc23)=Nc2ccccc21`, the TGI in the test on UO-31 renal is above 100 µM; in the test with SN12C renal, above 100 µM; with SK-MEL-2 melanoma, 80.1 µM; with RXF 393 renal it was 52.7 µM; with HCT-15 colon, above 100 µM; in the test with SF-268 CNS, above 100 µM. Moreover, the TGI with SK-MEL-5 melanoma was 80 µM; with SK-OV-3 ovarian, 68.1 µM; with A498 renal, above 100 µM; in the test with UACC-257 melanoma, above 100 µM; in the test with HT29 colon, above 100 µM; with RPMI-8226 leukemia it was above 100 µM. The TGI in the test with OVCAR-3 ovarian was 69.9 µM; in the test on NCI/ADR-RES ovarian it was above 100 µM; with HL-60(TB) leukemia, above 100 µM; with MDA-N, above 100 µM.
As for `CCCCCCC(=O)OC[n+]1cccc(-c2c(COC(=O)NC(C)C)c(COC(=O)NC(C)C)c3n2CCC3)c1`, the TGI was 63.7 µM in the test on UO-31 renal; above 100 µM in the test on SN12C renal; 60.4 µM with SK-MEL-2 melanoma; 51.5 µM with RXF 393 renal; above 100 µM in the test with HCT-15 colon; 69.9 µM with SF-268 CNS. Further, the TGI in the test with SK-MEL-5 melanoma was above 88.9 µM; in the test with SK-OV-3 ovarian, above 100 µM; in the test on A498 renal it was 44.9 µM; in the test on UACC-257 melanoma it was above 100 µM; in the test on HT29 colon it was above 100 µM; with RPMI-8226 leukemia it was above 100 µM. Besides, the TGI with OVCAR-3 ovarian is above 100 µM; in the test with NCI/ADR-RES ovarian, above 100 µM; in the test with HL-60(TB) leukemia it was above 48.9 µM; in the test with MDA-N, above 100 µM.
As to `CC(C)OP(=O)(OC(C)C)C(Nc1cccc(C(F)(F)F)c1)c1ccccc1` (stereo not drawn), the TGI in the test with UO-31 renal, in the test with SN12C renal, with SK-MEL-2 melanoma, in the test with RXF 393 renal, in the test with HCT-15 colon and in the test on SF-268 CNS was above 100 µM throughout. The TGI with SK-MEL-5 melanoma was 76.5 µM; in the test with SK-OV-3 ovarian, above 100 µM; in the test on A498 renal, above 100 µM; with UACC-257 melanoma it was above 100 µM; in the test with HT29 colon, above 100 µM; with RPMI-8226 leukemia it was 87.3 µM. The TGI in the test with OVCAR-3 ovarian, with NCI/ADR-RES ovarian, in the test with HL-60(TB) leukemia and with MDA-N was above 100 µM in each case.
As to `CC(=O)/C(=C(/Br)I)c1ccccc1`, the TGI was 25.1 µM in the test with UO-31 renal; 17.4 µM in the test with SN12C renal; 15.7 µM with SK-MEL-2 melanoma; 13.3 µM in the test on RXF 393 renal; 17.7 µM in the test with HCT-15 colon; above 46.3 µM in the test with SF-268 CNS. Besides, the TGI is 30.8 µM in the test on SK-MEL-5 melanoma; above 64.5 µM with SK-OV-3 ovarian; 28.5 µM in the test on A498 renal; 25.4 µM in the test with UACC-257 melanoma; 13.8 µM in the test on HT29 colon; 9.35 µM in the test on RPMI-8226 leukemia. Also, the TGI was found to be 17.9 µM in the test on OVCAR-3 ovarian, 45 µM in the test on NCI/ADR-RES ovarian, 4.95 µM with HL-60(TB) leukemia and 14.8 µM with MDA-N.
With `COC(=O)C1(C)OC(C)=NC1(C(=O)OC)C(=O)OC` (stereo not drawn), the TGI in the test with UO-31 renal, in the test with SN12C renal, in the test on SK-MEL-2 melanoma, in the test on RXF 393 renal, in the test on HCT-15 colon and with SF-268 CNS was above 100 µM throughout. The TGI with SK-MEL-5 melanoma, with SK-OV-3 ovarian, in the test with A498 renal, in the test with UACC-257 melanoma, in the test with HT29 colon and in the test with RPMI-8226 leukemia was above 100 µM throughout. Moreover, the TGI was above 100 µM in the test on OVCAR-3 ovarian, above 100 µM with NCI/ADR-RES ovarian, 14.4 µM with HL-60(TB) leukemia and above 100 µM in the test with MDA-N.
In the case of `COC(=O)[C@@H]1[C@H](O)CC[C@H]2[C@@]1(C)CC[C@@H](C)[C@]2(COC(C)=O)CC(=O)c1ccoc1`, the TGI in the test with UO-31 renal, with SN12C renal, in the test on SK-MEL-2 melanoma, with RXF 393 renal, with HCT-15 colon and with SF-268 CNS was above 50 µM each time. The TGI with SK-MEL-5 melanoma, with SK-OV-3 ovarian, in the test on A498 renal, in the test with UACC-257 melanoma, in the test on HT29 colon and in the test on RPMI-8226 leukemia was above 50 µM in each case. For the same compound, the TGI in the test on OVCAR-3 ovarian, in the test on NCI/ADR-RES ovarian, in the test on HL-60(TB) leukemia and in the test with MDA-N was above 50 µM throughout.
On to `CC1=C(C(=O)NC(C)(C)C)CC(C(=O)NC(C)(C)C)C(C)N1` (stereo not drawn), for which the TGI in the test on UO-31 renal, in the test with SN12C renal, in the test on SK-MEL-2 melanoma, in the test with RXF 393 renal, in the test with HCT-15 colon and in the test with SF-268 CNS was above 100 µM each time. For the same compound, the TGI in the test on SK-MEL-5 melanoma, with SK-OV-3 ovarian, in the test with A498 renal, with UACC-257 melanoma, with HT29 colon and in the test on RPMI-8226 leukemia was above 100 µM throughout. Further, the TGI with OVCAR-3 ovarian, in the test with NCI/ADR-RES ovarian, in the test on HL-60(TB) leukemia and in the test with MDA-N was above 100 µM each time.
Turning to `Cc1ncc(CO)c(C=NCCCCCCN=Cc2c(CO)cnc(C)c2O)c1O`, the TGI in the test with UO-31 renal, with SN12C renal, with SK-MEL-2 melanoma, in the test on RXF 393 renal, in the test on HCT-15 colon and with SF-268 CNS was above 100 µM in each case. Moreover, the TGI with SK-MEL-5 melanoma, in the test with SK-OV-3 ovarian, in the test on A498 renal, in the test on UACC-257 melanoma, in the test with HT29 colon and in the test on RPMI-8226 leukemia was above 100 µM in each case. Besides, the TGI with OVCAR-3 ovarian, in the test on NCI/ADR-RES ovarian, in the test on HL-60(TB) leukemia and in the test with MDA-N was above 100 µM each time.
Regarding `C=CC[C@H]1[C@H](O[Si](C)(C)C(C)(C)C)C=CC(=O)[C@@H]1CC(=O)OCC`, the TGI was found to be 25.6 µM in the test on UO-31 renal; 29.9 µM in the test with SN12C renal; 28.1 µM with SK-MEL-2 melanoma; 25.7 µM in the test on RXF 393 renal; 26.6 µM in the test on HCT-15 colon; 28.9 µM in the test with SF-268 CNS. The TGI was found to be 22.9 µM in the test with SK-MEL-5 melanoma; 34.1 µM in the test with SK-OV-3 ovarian; 26.6 µM in the test with A498 renal; 17.9 µM in the test with UACC-257 melanoma; 21.2 µM in the test on HT29 colon; 12.2 µM in the test with RPMI-8226 leukemia. The TGI in the test on OVCAR-3 ovarian worked out at 26.4 µM; in the test on NCI/ADR-RES ovarian it was 24.4 µM; in the test on HL-60(TB) leukemia, 24.8 µM; with MDA-N it was 29.1 µM.
For `CC1=C(C)C(=O)C(C2=C(C3=CC(=O)C(C)=C(C)C3=O)C(=O)c3ccccc3C2=O)=CC1=O`, the TGI is 4.95 µM with UO-31 renal; 4.06 µM with SN12C renal; 5.71 µM with SK-MEL-2 melanoma; 3.38 µM in the test on RXF 393 renal; 5.53 µM with HCT-15 colon; 17.5 µM with SF-268 CNS. Besides, the TGI in the test with SK-MEL-5 melanoma came out at 12.6 µM; in the test on SK-OV-3 ovarian, 30.5 µM; in the test on A498 renal, 18.4 µM; with UACC-257 melanoma it was 4.22 µM; in the test with HT29 colon, 5.47 µM; in the test on RPMI-8226 leukemia, 18 µM. Moreover, the TGI in the test on OVCAR-3 ovarian stood at 15.8 µM; in the test on NCI/ADR-RES ovarian, 36.7 µM; in the test on HL-60(TB) leukemia it was 1.11 µM; with MDA-N it was 3.6 µM.
For `NCCC1([N+](=O)[O-])CCNCC1`, the TGI with UO-31 renal, in the test on SN12C renal, in the test on SK-MEL-2 melanoma, in the test on RXF 393 renal, with HCT-15 colon and in the test on SF-268 CNS was above 100 µM in each case. In addition, the TGI in the test on SK-MEL-5 melanoma, in the test with SK-OV-3 ovarian, in the test with A498 renal, in the test on UACC-257 melanoma, in the test with HT29 colon and with RPMI-8226 leukemia was above 100 µM throughout. In addition, the TGI in the test on OVCAR-3 ovarian, with NCI/ADR-RES ovarian, in the test with HL-60(TB) leukemia and in the test with MDA-N was above 100 µM each time.
